{"source": "patent US20180073018A1", "about": "“COMPOSITIONS AND METHODS FOR SPECIFIC REACTIVATION OF HIV LATENT RESERVOIR” (priority 2015, published 2018)", "tested_on": "HIV-1 LTR promoter", "assay": "HIV-1 EGFP reporter reactivation in latent CHME5 microglial cells", "format": "cell-based", "details": "dCas9-VPH stable CHME5, 500 nM, 4 d", "excerpt": "Cells were infected with pMSCV-LTR-dCas9-VP64-puromycin and Lenti-MS2-p65-HSF1-hygromysin, selected for 10 days. The population cells were infected with Lenti-MS2-gRNAs-Zeosin and the fluorescent micrographs were taken at 1 day after infection (FIG. 5B). Cells were continuously cultured for 7 days, and selected with triple antibiotics (puromycin-hygromycin-Zeocin) for 3 days before flow cytometry (FIG. 5C).\nFIG. 9A and FIG. 9B: TZM-bI cells were infected with dCas9-VPH and indicated msgRNA lentiviruses at 1 or 10 MOI and luciferase activity was measured at 2-21 days post-infection (dpi). FIG. 9C, FIG. 9D: indicated HIV-1 EGFP reporter T cell lines were infected with dCas9-VPH and indicated msgRNAs lentiviruses at 10 MOI and flow cytometric analysis for EGFP percentage (FIG. 9C) and individual intensity (FIG. 9D) was performed at 1 dpi. […]\nFIG. 12A, FIG. 12B, FIG. 12C: The dCas9-VPH stable TZM-bI cells were treated with SAHA or infected with indicated msgRNAs lentivirus for 2-4 d before luminescence reporter assay (FIG. 12A) and CELLTITER-GLO® luminescent cell viability assay (FIG. 12B). […]\nCells were trypsinized (for CHME5) or collected (for suspension T cell lines), washed with PBS and fixed in 2% paraformaldehyde for 10 minutes at room temperature. Then, cells were washed twice with PBS and analyzed using a Guava EasyCyte Mini flow cytometer (Guava Technologies). […]", "data": [{"smiles": "O=C(CCCCCCC(=O)Nc1ccccc1)NO", "note": "[SAHA, suberoylanilide hydroxamic acid]", "values": [{"measurement": "HIV-1 provirus reactivation (EGFP)", "result": "marginal increase"}]}]}
